Assay results as given in patent publication US20210283211A1, “COMPOSITIONS AND METHODS OF ALLEVIATING RESISTANCE TO CHEMOTHERAPY” (CITY OF HOPE, priority 2019, published 2021).
Entries after “also recorded” stand apart in the source; their conditions may differ.

Legend:
H1993 cells [1] = assay: IncuCyte cell proliferation and caspase-3/7 apoptosis assay; assay type: cell-based, human
Protocol: (§1) Cell proliferation and apoptosis assay. Cell proliferation assays were performed using cell lines stably transfected with NucLight Red Lentivirus (Essen Bioscience) to accurately visualize and count the nucleus of a single cell. Cells were seeded on a 96-well plate and allowed to adhere for 24 hours. Test compounds were added at indicated concentrations. Caspase-3/7 Green Apoptosis Reagent (Essen Bioscience) was also added as a green fluorescent indicator of caspase-3/7-mediated apoptotic activity. To monitor cell proliferation and apoptosis over time, the plate was placed in the IncuCyte S3 Live-Cell Analysis System (Essen BioScience) and images were acquired every 2 hours. Data analysis was generated by the IncuCyte software using a red fluorescence mask to accurately count each cell nucleus and a green fluorescence mask to measure apoptosis over time.
(§2) To determine whether the inhibition in cell proliferation associated with ITGB4 knockdown was due to enhanced apoptosis or reduced cell division (cytostatic), the Essen Bioscience Caspase-3/7 Green apoptosis assay in live cells was conducted. The NucView™[…], a DNA intercalating dye was used to enable quantification of apoptosis over time. The dye is impermeable and non-toxic to cells but once the cell membrane is permeabilized by caspase-3/7, the dye enters the cell and gets activated due to change in pH leading to the generation of green fluorescence that is then detected in real time and quantified using the IncuCyte System (FIG. 4B).
To address this, H1993 and H2009 cells were treated with cisplatin for 3 days and the changes were analyzed by immunoblotting. […] Next, H1993 and H2009 cells were transiently transfected with ITGB4 siRNA and 24 hours post-transfection they were treated with 10 μM cisplatin and cell proliferation and caspase activity were determined. […] However, in response to cisplatin in ITGB4 knockdown cells, the fold change dipped to <1, alluding to a cytotoxic effect (FIG. 4C). […] However, cell death was not due to caspase activation but appeared to be due to cell bursting which is seen in anoikis (FIGS. 3K and 3L). […]

H2009 cells [2] = assay: Scratch wound healing assay; assay type: cell-based, human; settings: for cell migration / wound healing: sublethal dose (carfilzomib 50-200 nM)
Protocol: (§3) Scratch wound healing assay. Cells were seeded on a 96-well Image Lock (Essen BioScience, Ann Arbor, Mich., USA) plate to reach 90% confluence by the next day. After cell adherence, 96 uniform wounds were created simultaneously using the WoundMaker (Essen BioScience) tool. Cells were washed once with serum-free medium and replenished with complete medium. To monitor wound healing, the plate was placed in the IncuCyte S3 Live-Cell Analysis System (Essen BioScience) and images were acquired every hour. Data analysis was generated by the IncuCyte software using a set confluence mask to measure relative wound density over time.
(§4) To discern the effect of knocking down ITGB4 on cell migration, H1993 and H2009 cells were transfected with the control or ITGB4-specific siRNA in 6-well plates and 12 hours post transfection, the cells were trypsinized and reseeded at high density in a 96-well plate. […] While both cell lines transfected with the control siRNA achieved 100% confluency of the wound within 48 hours, H1993 and 2009 cells in which ITGB4 was knocked down reached ˜60% and ˜80% confluency, respectively; neither cell line reached 100% confluency even after 96 h (FIG. 3F). Next the rate of wound closure was estimated. The rate was determined by dividing initial wound width by the time taken to close the wound. […] Similarly, in the case of the H2009 cells, the wound width closure rate dropped from 22 μm/h to about 18 μm/h (FIG. 3G). […] Additionally, up regulation of expression of other integrin β forms in response to ITGB4 knockdown was checked and an increase in the expression of ITGB1, ITGB2, and ITGB3 at mRNA level was found (FIG. 3I). The effect of ITGB3 silencing in the ITGB4 knocked down cells was further tested but no significant difference in their proliferation was found (FIG. 3J).

H1993 cells [3] = assay: Scratch wound healing assay; assay type: cell-based, human; settings: ITGB4 knockdown
Protocol: as §3, §4

H2009 cells [4] = assay: IncuCyte cell proliferation and caspase-3/7 apoptosis assay; assay type: cell-based, human
Protocol: as §1, §2
To address this, H1993 and H2009 cells were treated with cisplatin for 3 days and the changes were analyzed by immunoblotting. […] Next, H1993 and H2009 cells were transiently transfected with ITGB4 siRNA and 24 hours post-transfection they were treated with 10 μM cisplatin and cell proliferation and caspase activity were determined. […] However, in response to cisplatin in ITGB4 knockdown cells, the fold change dipped to <1, alluding to a cytotoxic effect (FIG. 4C). […] However, cell death was not due to caspase activation but appeared to be due to cell bursting which is seen in anoikis (FIGS. 3K and 3L).

H358 cells = assay: Cell-based rescreen of top virtual-screen hits, IC50 determination; settings: Homo sapiens, NCI-H358, 0.1 μM to 10 μM, 72 hours
Protocol: Cell viability assay: Cell Counting Kit-8 (CCK-8) was purchased from Dojindo Molecular Technologies (Rockville, Md., USA). Cells were seeded on a 96-well plate and allowed to adhere in complete medium for 24 hours. Test compounds were added to 100 μl of medium at the indicated concentrations for 72 hours. Ten μl of the CCK-8 reagent were added to each well and absorbance at 450 nm was measured using a Tecan Spark 10M multimode microplate reader.
A virtual screen of a library of 1440 FDA-approved drugs using binding pockets in the N-terminal domain of PXN (FIG. 9H) identified several putative hits. The top 40 hits were then rescreened employing a cell-based assay to determine their efficacy using H358 cells.

[5] = test system: ITGB4 and PXN expression, γH2AX in H358 cells; assay: Immunoblot after sublethal dose; assay type: cell-based, human; settings: 72 hours
Protocol: (§5) West blotting: Cell lysates were prepared with 1×RIPA buffer (MilliporeSigma) and denatured in 1× reducing sample buffer at 95° C. for 5 minutes. Protein samples (15 μg) were run on 4-15% TGX gels (Bio-Rad, Hercules, Calif., USA) and transferred onto nitrocellulose membranes (Bio-Rad). Blots were blocked with 5% non-fat milk in TBS-T for 1 hour at room temperature and probed with primary antibody diluted in 2.5% BSA in TBS-T overnight at 4° C. After three washes with TBS-T, blots were incubated with HRP-conjugated secondary antibodies for 2 hours at room temperature. After three more washes, bands of interest were visualized via chemiluminescence using Western Bright ECL HRP substrate (Advansta, Menlo Park, Calif., USA) and imaged with the ChemiDoc MP imager (Bio-Rad).
(§6) Then a sublethal dose was used to determine the effect of these compounds on ITGB4 and PXN expression and caspase activity (FIG. 9I). […] These eleven compounds were further screened in the cisplatin-resistant cell line H2009. […] Further, carfilzomib was tested in another cisplatin-resistant cell line H1993.

[6] = test system: ITGB4 expression in H2009 cells; assay: FACS analysis with ITGB4 antibody after cisplatin; assay type: cell-based, human; settings: cisplatin for 4 days, FACS on day 5
Protocol: Fluorescence-activated cell sorting (FACS) and analysis: Cells were trypsinized and resuspended (5 million) in PBS with 2% FBS. Cells were stained with ITGB4 antibody conjugated to Alexa Fluor® 488 (5 μl/1 million cells) (R&D Systems, Minneapolis, Minn., USA) and Propidium Iodide Ready Flow™ Reagent (1 drop/1 million cells) (Invitrogen) for 30 minutes at 4° C. The Analytical Cytometry Core Facility at City of Hope carried out and assisted all FACS sorting and analysis experiments. Gates were set to sort cell populations having low 10% and high 10% expression of ITGB4 using the FACSAria™ Fusion (BD Biosciences, San Jose, Calif., USA). Sorted cells were immediately cultured in 12-well plates and treated with cisplatin (1 μM) for 48 hours. Then, equal number of untreated and treated cells were collected and stained with same reagents as above. FACS analysis was performed to determine shifts in cell population using the Attune NxT Flow Cytometer (Invitrogen).
To test the predictions made by the model, H2009 cells were treated with cisplatin for 4 days. On day 5, they were subjected to FACS analysis using an ITGB4 antibody. […] In presence of stress, the cells either increased the expression of ITGB4 or the cells having high ITGB4 get selected (FIG. 13B). […] The cells were then counted, and an equal number of cells were stained with ITGB4 antibody and PI and analyzed by FACS sorting.

[7] = test system: ITGB4, PXN, USP1, VDAC1, CD133 in patient-derived organoids; assay: Immunoblot of treated patient-derived organoids; assay type: cell-based, human; settings: 48 hours, printed 2.5 mM and 5 mM
[8] = test system: patient-derived organoids (lung cancer); assay: Patient tumor tissue-derived organoid assay (area, caspase activity); assay type: cell-based, human
Protocol: Next, drug efficacy in patient tumor tissue-derived organoids was determined. Approximately 5000 cells/sample from 2 surgical samples were seeded in an ultra-low attachment plate and incubated at 37° C. […] In one of the patient-derived organoids, cisplatin treatment alone decreased spheroid area and increased apoptosis as measured by green intensity (FIG. 11D). […] Indeed, by 72 hours carfilzomib at a concentration of 2.5 μM induced 5-fold increase in caspase activity compared to cisplatin alone but there was not much change in the spheroid area (FIGS. 11E-11F). Thus, no additive effect was apparent in this patient sample. […] The efficacy of ITGB4 antibody in disrupting organoid growth and inducing apoptosis was also tested.

[9] = test system: ITGB4, PXN, FAK, p27, phospho-Rb, γH2AX, cleaved PARP in H2009 cells; assay: Immunoblot; assay type: cell-based, human; settings: cisplatin 10 μM, 3 days
Protocol: as §5, §6

[10] = test system: ITGB4, PXN, FAK, MET, γH2AX, cleaved PARP in H1993 cells; assay: Immunoblot; assay type: cell-based, human; settings: cisplatin 10 μM, 3 days
Protocol: as §5, §6

[11] = ITGB4 knockdown or 10 μM cisplatin alone, cytostatic

Compound: GUCAGUUCUGCGAGUAUGACAACTT (SEQ ID NO: 9) (chemistry not given here) [ITGB4 siRNA, siRNA against ITGB4, construct C, OriGene SR302473C]
- fold change in cell count (H1993 cells [1]; [11]): ~1 fold
- fold change in cell count (H1993 cells [1]; ITGB4 knockdown plus 10 μM cisplatin, cytotoxic): < 1 fold
- increase in caspase activity compared to control (H1993 cells [1]; ITGB4 knockdown, by 24 hours): 5- to 6 fold
- increase in caspase activity compared to control (H1993 cells [1]; ITGB4 knockdown, by 72 hours): 20 fold
- increase in cell count (H1993 cells [1]; ITGB4 knockdown, by 72 hours): 0.2 fold
- estimated doubling time (H1993 cells [1]; ITGB4 knockdown, control 72 hours): approximately 120 hours
- drop in the fold change of cell count (H1993 cells [1]; knockdown plus cisplatin, compared to scramble siRNA cells treated with cisplatin): 40%
- inhibition of cell proliferation (H1993 cells [1]; siRNA knockdown): 50%
- wound width closure rate (H2009 cells [2]; ITGB4 knockdown, control 22 μm/h): about 18 μm/h
- wound confluency (H2009 cells [2]; ITGB4 knockdown, control siRNA 100% within 48 hours): ~80%
- wound confluency (H1993 cells [3]; control siRNA 100% within 48 hours): ~60%
- wound closure rate (H1993 cells [3]; control ~25 μm/h): < 10 μm/h
- doubling time (H2009 cells [4]; ITGB4 knockdown, control approximately 25 hours): 40 h

Compound: C#Cc1cccc(Nc2ncnc3cc(OC)c(OCCCCCCC(=O)NO)cc23)c1 [CUDC-101]
- IC50 (H358 cells): 501 nM
- cell migration / wound healing (H2009 cells [2]): less effective than carfilzomib in inhibiting wound healing; also recorded: did not
- apoptosis, DNA damage (γH2AX) and ITGB4 expression [5]: induced apoptosis and caused DNA damage

Compound: CC(C)C[C@H](NC(=O)CNC(=O)c1cc(Cl)ccc1Cl)B(O)O [Ixazomib]
- IC50 (H358 cells): 303 nM
- cell migration / wound healing (H2009 cells [2]): less effective than carfilzomib in inhibiting wound healing; also recorded: impeded cell migration
- apoptosis, DNA damage (γH2AX) and ITGB4 expression [5]: induced apoptosis and caused DNA damage

Compound: N.N.[Cl][Pt][Cl] [Cisplatin, Cis-diamminedichloroplatinum(II)]
- caspase activity (H1993 cells [1]; 10 μM cisplatin alone): did not induce caspase activity
- fold change in cell count (H1993 cells [1]; [11]): ~1 fold
- decrease in ITGB4 low-expressing cells compared to untreated [6]: 15%
- protein expression by immunoblot [7]: minimal effect
- spheroid area ([8]; patient LCSC2): decreased the spheroid area
- organoid size ([8]; patient LCSC4, cisplatin 5 μM alone, carfilzomib 2.5 μM alone): decreased the size of the organoid
- caspase activity ([8]; second patient (LCSC2) organoids, drug alone): did not induce any caspase activity
- protein expression by immunoblot [9]: reduction in the expression of phosphorylated as well as total FAK and PXN
- protein expression by immunoblot [10]: reduction in the expression of phosphorylated as well as total FAK and PXN
- apoptosis (H2009 cells [4]; 10 μM cisplatin alone): induced apoptosis in H2009 cell by 72 hours
